Experimental findings from ChEMBL document CHEMBL1133438, “Potent acetylcholinesterase inhibitors: design, synthesis and structure-activity relationships of alkylene linked bis-galanthamine and galanthamine-galanthaminium salts” (Bioorg Med Chem Lett, 2000) are described below.

The target in this assay is Acetylcholinesterase (Electrophorus electricus, UniProt O42275). The experiment in a line: Compound was assessed for in vitro inhibition of Acetylcholinesterase isolated from Electrophorus electricus.
Chain of Acetylcholinesterase (O42275 whole entry): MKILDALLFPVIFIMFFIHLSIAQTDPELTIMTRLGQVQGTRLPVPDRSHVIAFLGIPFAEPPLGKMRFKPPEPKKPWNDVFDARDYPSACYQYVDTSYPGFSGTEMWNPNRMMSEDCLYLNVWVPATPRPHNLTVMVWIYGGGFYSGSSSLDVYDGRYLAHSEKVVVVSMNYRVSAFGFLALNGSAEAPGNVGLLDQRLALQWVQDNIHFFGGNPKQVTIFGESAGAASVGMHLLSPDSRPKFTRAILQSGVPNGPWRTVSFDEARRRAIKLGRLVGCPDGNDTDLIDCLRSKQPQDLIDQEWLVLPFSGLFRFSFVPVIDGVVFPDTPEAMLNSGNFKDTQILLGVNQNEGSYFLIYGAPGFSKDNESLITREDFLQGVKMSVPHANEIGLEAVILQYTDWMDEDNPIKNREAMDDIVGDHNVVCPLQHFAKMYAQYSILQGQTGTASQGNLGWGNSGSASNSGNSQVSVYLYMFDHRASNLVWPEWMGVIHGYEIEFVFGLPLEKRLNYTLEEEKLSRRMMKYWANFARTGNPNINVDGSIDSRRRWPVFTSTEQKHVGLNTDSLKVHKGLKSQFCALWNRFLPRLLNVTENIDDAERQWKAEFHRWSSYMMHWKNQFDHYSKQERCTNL

Regarding `COc1ccc2c3c1OC1C[C@@H](O)C=C[C@@]31CC[N+](CCCCCCCCCCN1CC[C@@]34C=C[C@H](O)C[C@@H]3Oc3c(OC)ccc(c34)C1)=C2` (stereo partly specified), the IC50 (usually the concentration needed to halve the response being measured) turned out to be 12 nM. The figure for `COc1ccc2c3c1OC1C[C@@H](O)C=C[C@@]31CCN(CCCCCCN1CC[C@@]34C=C[C@H](OC)C[C@@H]3Oc3c(OC)ccc(c34)C1)C2` (stereo partly specified) is 450 nM; for `COc1ccc2c3c1OC1C[C@@H](O)C=C[C@@]31CCN(CCCCCCCCN1CC[C@@]34C=C[C@H](OC)C[C@@H]3Oc3c(OC)ccc(c34)C1)C2` (stereo partly specified) it is 230 nM; for `COc1ccc2c3c1OC1C[C@@H](O)C=C[C@@]31CC[N+](CCCCCCN1CC[C@@]34C=C[C@H](O)C[C@@H]3Oc3c(OC)ccc(c34)C1)=C2` (stereo partly specified) it is 68 nM.

In turn, `COc1ccc2c3c1OC1C[C@@H](O)C=C[C@@]31CCN(CCCCCCCCCCN1CC[C@@]34C=C[C@H](OC)C[C@@H]3Oc3c(OC)ccc(c34)C1)C2` (stereo partly specified) came in with a 50% inhibitory concentration (IC50) of 560 nM. Then `COc1ccc2c3c1OC1C[C@@H](O)C=C[C@@]31CC[N+](CCCCCCCCN1CC[C@@]34C=C[C@H](O)C[C@@H]3Oc3c(OC)ccc(c34)C1)=C2` (stereo partly specified), with 22 nM.
